Structures are written as SMILES.

One assay addresses T1, human RAD54 (Homo sapiens, UniProt Q92698).
T1 sequence (Q92698 1-747): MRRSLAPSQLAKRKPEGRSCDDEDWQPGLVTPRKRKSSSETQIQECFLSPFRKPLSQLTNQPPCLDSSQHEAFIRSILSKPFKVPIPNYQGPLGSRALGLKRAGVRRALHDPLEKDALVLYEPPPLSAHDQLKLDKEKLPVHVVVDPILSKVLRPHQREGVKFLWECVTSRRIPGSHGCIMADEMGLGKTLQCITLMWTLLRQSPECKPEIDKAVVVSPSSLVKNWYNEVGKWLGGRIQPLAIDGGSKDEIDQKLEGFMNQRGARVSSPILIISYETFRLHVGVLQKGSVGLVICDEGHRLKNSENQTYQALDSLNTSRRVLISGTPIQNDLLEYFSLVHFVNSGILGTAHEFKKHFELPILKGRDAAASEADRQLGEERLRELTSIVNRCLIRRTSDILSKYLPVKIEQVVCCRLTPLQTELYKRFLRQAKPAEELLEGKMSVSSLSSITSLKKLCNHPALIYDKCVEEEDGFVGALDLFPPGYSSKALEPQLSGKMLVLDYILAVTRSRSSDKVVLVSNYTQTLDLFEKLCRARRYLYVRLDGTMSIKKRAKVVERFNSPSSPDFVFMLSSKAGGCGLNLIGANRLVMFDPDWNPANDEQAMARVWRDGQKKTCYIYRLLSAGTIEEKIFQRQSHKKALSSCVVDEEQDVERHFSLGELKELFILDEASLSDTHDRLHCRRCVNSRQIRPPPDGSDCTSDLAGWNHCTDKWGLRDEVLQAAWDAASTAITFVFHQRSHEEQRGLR
The experiment in a line: biochemical.
Settings: not given
As a reminder, the IC50 is the concentration at which inhibition is half-maximal. On to `Cc1ccc(C)n1CCN1CCNCC1` [54h^o-1], for which the IC50 is greater than 60 µM.

In a further assay the target is T1, human RAD54. The experiment in a line: malachite green phosphate ATPase assay. In kind it is biochemical.
Settings: not given
With `CC1(C)Cc2c(ccc3ccccc23)C(CCN2CCCCC2)=N1` [54i-2], the IC50 turned out to be 16 ± 3 µM.

As for `CC1(C)c2ccccc2N(CCc2nnn[nH]2)c2ccccc21` [tricyc-1], the IC50 is greater than 130 µM. On the same count and under the same terms, the figure for `CC1(C)c2cc(Cl)ccc2N(CCc2nnn[nH]2)c2ccc(Cl)cc21` [tricyc-2] is 3.07 ± 0.7 µM; for `CC1(C)c2cc(Br)ccc2N(CCc2nnn[nH]2)c2ccc(Br)cc21` [tricyc-3] it is 7.65 ± 1.06 µM.

A further assay concerns the target T1, human RAD54. The experiment in a line: biochemical.
Settings: not given
The source holds these as a separate data set.
In turn, `CC1(C)c2ccccc2N(CCc2nnn[nH]2)c2ccccc21` [tricyc-1] came in with an IC50 of 129 ± 19.7 µM.

The next assay has as its target T1, human RAD54. The experiment in a line: biochemical. The conditions noted are these: read-out: % inh.
With `CCn1nc(-c2ccc(C)cc2)nc2c(=O)n(C)c(=O)nc1-2` [54i^P-1d], the inhibition at 10 µM was found to be 49%. On to `CCn1nc(-c2ccc(C(F)F)cc2)nc2c(=O)n(C)c(=O)nc1-2` [54i^P-1e], for which the inhibition at 10 µM came to 79%. For `CCn1nc(-c2ccccc2C)nc2c(=O)n(C)c(=O)nc1-2` [54i^P-1c], the inhibition at 10 µM amounted to 70%. The same measure, in the same setting: next, `CC1(C)Cc2c(ccc3ccccc23)C(CCN2CCCCC2)=N1` [54i-2]: 18%. In the case of `Cc1nc2c(=O)n(C)c(=O)nc-2n(C)n1` [54i^P-1a], the inhibition at 10 µM amounted to 44%.

`CCCc1nc2c(=O)n(C)c(=O)nc-2n(C)n1` [54i^P-1b]: the inhibition at 10 µM was 61%. With `CS(=O)(=O)C1=NSC2=NC(=O)C(=Cc3ccc(SCc4ccc(Cl)cc4)o3)C(=N)N21` [54i^P-3], the inhibition at 10 µM came out at 27%. On the same count and under the same terms, next, `Cc1ccc(C)n1-c1ccc(C(=O)O)c(O)c1` [54i^P-2a]: 50%; `Cc1ccc(C)n1-c1ccc(SCC(=O)O)cc1` [54i^P-2b]: 70%.

For `NC=O` [54i^P-4], the inhibition at 10 µM stood at 36%.

These data come from article doi:10.1101/614586v1 (biorxiv, 2019).
